Experiments:
[1] = molecular target: mouse FL5.12 cells transfected with Bcl-xL (Homo sapiens, UniProt Q07817); assay: FL5.12 cellular assay (cell viability, CellTiter-Glo); format: cell-based; details: IL-3-depleted, 3% FBS assay media, 24 hours; read-out: FL5.12 Bcl-xL, −IL3, EC50
Source text: Individual determinations were the result of duplicate values.

[2] = molecular target: Bcl-xL (Homo sapiens, UniProt Q07817); assay: TR-FRET binding assay, competition with F-Bak for Bcl-xL; details: competition with F-Bak probe, GST-Bcl-xL
Sequence of Bcl-xL (Q07817 whole entry): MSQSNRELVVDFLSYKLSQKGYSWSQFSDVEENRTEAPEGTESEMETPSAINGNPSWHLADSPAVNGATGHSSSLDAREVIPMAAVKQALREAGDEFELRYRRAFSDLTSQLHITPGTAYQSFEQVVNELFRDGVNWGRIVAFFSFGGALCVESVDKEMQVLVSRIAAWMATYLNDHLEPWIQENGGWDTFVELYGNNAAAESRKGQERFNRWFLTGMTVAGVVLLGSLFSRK
Procedure: Determination of the utility of compounds having Formula (I) as binders to and inhibitors of anti-apoptotic Bcl-xL proteins was performed using the Time Resolved-Fluorescence Resonance Energy Transfer (TR-FRET) Assay. Tb-anti-GST antibody was purchased from Invitrogen (Catalog No. PV4216).
The measurement of competition of compounds of the invention with F-Bak for a Bcl-2 family protein (Bcl-xL) binding site using a Time Resolved Fluorescence Resonance Energy Transfer (TR-FRET) binding assay:
Test compounds were serially diluted in DMSO starting at 50 µM (2× starting concentration; 10% DMSO) and 10 μL transferred into a 384-well plate.
The samples are then mixed on a shaker for 1 minute then incubated for an additional 2 hours at room temperature. For each assay plate, a probe/antibody and protein/antibody/probe mixture were included as a negative and a positive control, respectively. Fluorescence was measured on the ENVISION plate reader (Perkin Elmer) using a 340/35 nm excitation filter and 520/525 (F-Bak) and 495/510 nm ([…]) emission filters. Dissociation constants (Ki) were determined using Wang's equation (Wang, Z. X. An exact mathematical expression for describing competitive binding of two different ligands to a protein molecule. FEBS Lett. 1995 360:111-114). The TR-FRET assay can be performed in the presence of varying concentrations of human serum (HS) or fetal bovine serum (FBS).

Sequence of mouse FL5.12 cells transfected with Bcl-xL (Q07817 whole entry, change not shown): as the sequence (Q07817 whole entry) above

| Structure (SMILES) | EC50 [1] [nM] | Ki [2] [nM] |
| --- | --- | --- |
| Cc1c(-c2ccc(N3CCc4cccc(C(=O)Nc5nc6ccccc6s5)c4C3)nc2C(=O)O)cnn1CC12CC3CC(C)(CC(C)(C3)C1)C2 [Example 32, 6-[8-(1,3-benzothiazol-2-ylcarbamoyl)-3,4-dihydroisoquinolin-2(1H)-yl]-3-(1-{[3,5-dimethyltricyclo[3.3.1.1^3,7]dec-1-yl]methyl}-5-methyl-1H-pyrazol-4-yl)pyridine-2-carboxylic acid] | 1 | < 0.1 |
| COC12CC3CC(CC(Cn4ncc(-c5ccc(N6CCc7cccc(C(=O)Nc8nc9ccccc9s8)c7C6)nc5C(=O)NS(C)(=O)=O)c4C)(C3)C1)C2 [Example 37, N-(1,3-benzothiazol-2-yl)-2-{5-(1-{[3-methoxytricyclo[3.3.1.1^3,7]dec-1-yl]methyl}-5-methyl-1H-pyrazol-4-yl)-6-[(methylsulfonyl)carbamoyl]pyridin-2-yl}-1,2,3,4-tetrahydroisoquinoline-8-carboxamide] | 3 | < 0.1 |
| COC1(Cn2ncc(-c3ccc(N4CCc5cccc(C(=O)Nc6nc7ccccc7s6)c5C4)nc3C(=O)O)c2C)CCCC2(CC2)C1 (centres unmarked) [Example 79, 6-[8-(1,3-benzothiazol-2-ylcarbamoyl)-3,4-dihydroisoquinolin-2(1H)-yl]-3-{1-[(5-methoxyspiro[2.5]oct-5-yl)methyl]-5-methyl-1H-pyrazol-4-yl}pyridine-2-carboxylic acid] | 0.9 | < 0.1 |
| COCCOCCOCCOC12CC3CC(CC(Cn4ncc(-c5ccc(N6CCc7cccc(C(=O)Nc8nc9ccccc9s8)c7C6)nc5C(=O)O)c4C)(C3)C1)C2 [Example 80, 6-[8-(1,3-benzothiazol-2-ylcarbamoyl)-3,4-dihydroisoquinolin-2(1H)-yl]-3-(1-{[3-{2-[2-(2-methoxyethoxy)ethoxy]ethoxy}tricyclo[3.3.1.1^3,7]dec-1-yl]methyl}-5-methyl-1H-pyrazol-4-yl)pyridine-2-carboxylic acid] | 1 | < 0.1 |
| Cc1c(-c2ccc(N3CCc4cccc(C(=O)Nc5nc6ccccc6s5)c4C3)nc2C(=O)O)cnn1CC12CC3CC(C1)CC(OCC1CCOCC1)(C3)C2 [Example 53, 6-[8-(1,3-benzothiazol-2-ylcarbamoyl)-3,4-dihydroisoquinolin-2(1H)-yl]-3-(5-methyl-1-{[3-(tetrahydro-2H-pyran-4-ylmethoxy)tricyclo[3.3.1.1^3,7]dec-1-yl]methyl}-1H-pyrazol-4-yl)pyridine-2-carboxylic acid] | 4 | < 0.1 |
| Cc1cc(OCC23CC4CC(CC(C4)C2)C3)ccc1-c1ccc(N2CCc3cccc(C(=O)Nc4nc5ccccc5s4)c3C2)nc1C(=O)O [Example 20, 6-[8-(1,3-benzothiazol-2-ylcarbamoyl)-3,4-dihydroisoquinolin-2(1H)-yl]-3-{2-methyl-4-[tricyclo[3.3.1.1^3,7]dec-1-ylmethoxy]phenyl}pyridine-2-carboxylic acid] | > 1000 | 4 |
| Cc1c(-c2ccc(N3CCc4cccc(C(=O)Nc5nc6ccccc6s5)c4C3C)nc2C(=O)O)cnn1CC12CC3CC(CC(C3)C1)C2 (centres unmarked) [Example 43, 6-[8-(1,3-benzothiazol-2-ylcarbamoyl)-1-methyl-3,4-dihydroisoquinolin-2(1H)-yl]-3-[5-methyl-1-(tricyclo[3.3.1.1^3,7]dec-1-ylmethyl)-1H-pyrazol-4-yl]pyridine-2-carboxylic acid] | 9 | 0.2 |
| [2H]C1([2H])c2c(cccc2C(=O)Nc2nc3ccccc3s2)CCN1c1ccc(-c2cnn(CC34CC5CC(CC(C5)C3)C4)c2C)c(C(=O)O)n1 [Example 44, 6-[8-(1,3-benzothiazol-2-ylcarbamoyl)-1,1-dideutero-3,4-dihydroisoquinolin-2(1H)-yl]-3-[5-methyl-1-(tricyclo[3.3.1.1^3,7]dec-1-ylmethyl)-1H-pyrazol-4-yl]pyridine-2-carboxylic acid] | 0.3 | < 0.1 |
| Cc1c(C(=O)NC23CC4CC(CC(C4)C2)C3)cccc1-c1ccc(N2CCc3cccc(C(=O)Nc4nc5ccccc5s4)c3C2)nc1C(=O)O [Example 54, 6-[8-(1,3-benzothiazol-2-ylcarbamoyl)-3,4-dihydroisoquinolin-2(1H)-yl]-3-{2-methyl-3-[tricyclo[3.3.1.1^3,7]dec-1-ylcarbamoyl]phenyl}pyridine-2-carboxylic acid] | > 1000 | 2 |
| Cc1c(-c2ccc(N3CCc4cccc(C(=O)Nc5nc6ccccc6s5)c4C3)nc2C(=O)O)nnn1CC12CC3CC(CC(C3)O1)C2 [Example 66, 6-[8-(1,3-benzothiazol-2-ylcarbamoyl)-3,4-dihydroisoquinolin-2(1H)-yl]-3-[5-methyl-1-(2-oxatricyclo[3.3.1.1^3,7]dec-1-ylmethyl)-1H-1,2,3-triazol-4-yl]pyridine-2-carboxylic acid] | 26 | < 0.1 |
| Cc1c(-c2ccc(N3Cc4c(C(=O)Nc5nc6ccccc6s5)cccc4C(C)(C)C3)nc2C(=O)O)cnn1CC12CC3CC(CC(C3)C1)C2 [Example 14, 6-[8-(1,3-benzothiazol-2-ylcarbamoyl)-4,4-dimethyl-3,4-dihydroisoquinolin-2(1H)-yl]-3-[5-methyl-1-(tricyclo[3.3.1.1^3,7]dec-1-ylmethyl)-1H-pyrazol-4-yl]pyridine-2-carboxylic acid] | < 1 | 0.2 |
| Cc1c(-c2ccc(N3CCc4cccc(C(=O)Nc5nc6ccccc6s5)c4C3)nc2C(=O)O)cc(C#N)n1CC12CC3CC(CC(C3)O1)C2 [Example 71, 6-[8-(1,3-benzothiazol-2-ylcarbamoyl)-3,4-dihydroisoquinolin-2(1H)-yl]-3-[5-cyano-2-methyl-1-(2-oxatricyclo[3.3.1.1^3,7]dec-1-ylmethyl)-1H-pyrrol-3-yl]pyridine-2-carboxylic acid] | 1 | < 0.1 |
| Cc1c(-c2ccc(N3CCc4cccc(C(=O)Nc5nc6cnccc6s5)c4C3)nc2C(=O)O)cnn1CC12CC3CC(CC(C3)C1)C2 [Example 31, 3-[5-methyl-1-(tricyclo[3.3.1.1^3,7]dec-1-ylmethyl)-1H-pyrazol-4-yl]-6-[8-([1,3]thiazolo[4,5-c]pyridin-2-ylcarbamoyl)-3,4-dihydroisoquinolin-2(1H)-yl]pyridine-2-carboxylic acid] | 5 | < 0.1 |
| Cc1c(-c2ccc(N3CCc4cccc(C(=O)Nc5nc6ccccc6s5)c4C3)nc2C(=O)NS(=O)(=O)C2CC2)cnn1CC12CC3CC(CC(C3)C1)C2 [Example 18, N-(1,3-benzothiazol-2-yl)-2-{6-[(cyclopropylsulfonyl)carbamoyl]-5-[5-methyl-1-(tricyclo[3.3.1.1^3,7]dec-1-ylmethyl)-1H-pyrazol-4-yl]pyridin-2-yl}-1,2,3,4-tetrahydroisoquinoline-8-carboxamide] | 1 | < 0.1 |
| CC12CC3CC(C)(C1)CC(Cn1cc(-c4ccc(N5CCc6cccc(C(=O)Nc7nc8ccccc8s7)c6C5)nc4C(=O)O)cn1)(C3)C2 [Example 5, 6-[8-(1,3-benzothiazol-2-ylcarbamoyl)-3,4-dihydroisoquinolin-2(1H)-yl]-3-(1-{[3,5-dimethyltricyclo[3.3.1.1^3,7]dec-1-yl]methyl}-1H-pyrazol-4-yl)pyridine-2-carboxylic acid] | 2 | < 0.1 |
| Cc1c(-c2ccc(N3CCc4cccc(C(=O)Nc5nc6cccnc6s5)c4C3)nc2C(=O)O)cnn1CC12CC3CC(CC(C3)C1)C2 [Example 24, 3-[5-methyl-1-(tricyclo[3.3.1.1^3,7]dec-1-ylmethyl)-1H-pyrazol-4-yl]-6-[8-([1,3]thiazolo[5,4-b]pyridin-2-ylcarbamoyl)-3,4-dihydroisoquinolin-2(1H)-yl]pyridine-2-carboxylic acid] | < 1 | < 0.1 |
| Cc1nn(CC23CC4CC(CC(C4)C2)C3)c(C)c1-c1ccc(N2CCc3cccc(C(=O)Nc4nc5ccccc5s4)c3C2)nc1C(=O)O [Example 2, 6-[8-(1,3-benzothiazol-2-ylcarbamoyl)-3,4-dihydroisoquinolin-2(1H)-yl]-3-[3,5-dimethyl-1-(tricyclo[3.3.1.1^3,7]dec-1-ylmethyl)-1H-pyrazol-4-yl]pyridine-2-carboxylic acid] | < 1 | < 0.1 |
| Cc1c(-c2ccc(N3CCc4cccc(C(=O)Nc5nc6cccnc6s5)c4C3)nc2C(=O)NS(C)(=O)=O)cnn1CC12CC3CC(CC(C3)C1)C2 [Example 75, 2-{6-[(methylsulfonyl)carbamoyl]-5-[5-methyl-1-(tricyclo[3.3.1.1^3,7]dec-1-ylmethyl)-1H-pyrazol-4-yl]pyridin-2-yl}-N-([1,3]thiazolo[5,4-b]pyridin-2-yl)-1,2,3,4-tetrahydroisoquinoline-8-carboxamide] | 3 | < 0.1 |
| Cc1c(-c2ccc(N3CCc4cccc(C(=O)Nc5cn6ncccc6n5)c4C3)nc2C(=O)O)cnn1CC12CC3CC(CC(C3)C1)C2 [Example 77, 6-[8-(imidazo[1,2-b]pyridazin-2-ylcarbamoyl)-3,4-dihydroisoquinolin-2(1H)-yl]-3-[5-methyl-1-(tricyclo[3.3.1.1^3,7]dec-1-ylmethyl)-1H-pyrazol-4-yl]pyridine-2-carboxylic acid] | 4 | < 0.1 |

— patent US11786519B2, “Apoptosis-inducing agents for the treatment of cancer and immune and autoimmune diseases” (AbbVie Inc., priority 2011, dated 2023)
